# From US8440442B2, “Method of assaying 5-FU” (Myriad Genetics, Inc, priority 2009, dated 2013)
# Target: T1, dihydropyrimidine dehydrogenase (DPD) (Homo sapiens, UniProt Q12882)
# T1 construct: from tissue; host or cells: donor whole blood (K2EDTA), plasma separated from it, and WBC/buffy coat
# T1 sequence (Q12882 4-1025): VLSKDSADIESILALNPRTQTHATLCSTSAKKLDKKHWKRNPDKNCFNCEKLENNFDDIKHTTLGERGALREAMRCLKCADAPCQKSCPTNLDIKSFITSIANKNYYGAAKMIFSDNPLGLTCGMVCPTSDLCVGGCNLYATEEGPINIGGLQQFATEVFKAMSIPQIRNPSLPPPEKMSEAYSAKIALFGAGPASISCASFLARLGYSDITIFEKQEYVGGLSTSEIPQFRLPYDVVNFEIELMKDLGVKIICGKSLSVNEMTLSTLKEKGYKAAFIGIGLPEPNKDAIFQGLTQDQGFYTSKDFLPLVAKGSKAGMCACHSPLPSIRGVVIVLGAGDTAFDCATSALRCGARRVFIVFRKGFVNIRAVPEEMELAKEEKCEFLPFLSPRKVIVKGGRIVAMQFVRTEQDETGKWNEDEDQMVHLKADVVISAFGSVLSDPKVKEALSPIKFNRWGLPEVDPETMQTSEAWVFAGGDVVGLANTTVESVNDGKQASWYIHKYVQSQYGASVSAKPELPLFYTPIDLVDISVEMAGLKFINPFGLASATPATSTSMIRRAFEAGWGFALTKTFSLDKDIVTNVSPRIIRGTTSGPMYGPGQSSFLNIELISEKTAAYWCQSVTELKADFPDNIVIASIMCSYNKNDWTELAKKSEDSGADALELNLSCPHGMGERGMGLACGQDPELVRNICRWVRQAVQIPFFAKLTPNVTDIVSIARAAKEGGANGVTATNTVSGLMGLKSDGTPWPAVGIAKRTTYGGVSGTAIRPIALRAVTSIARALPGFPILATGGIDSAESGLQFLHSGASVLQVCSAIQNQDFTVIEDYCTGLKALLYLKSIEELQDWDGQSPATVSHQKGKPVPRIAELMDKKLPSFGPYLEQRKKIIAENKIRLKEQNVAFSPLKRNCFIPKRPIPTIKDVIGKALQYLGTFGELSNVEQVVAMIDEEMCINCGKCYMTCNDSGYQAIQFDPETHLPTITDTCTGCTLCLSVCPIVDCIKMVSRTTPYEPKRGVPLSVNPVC
# Assay: Amount of DPD inactivator needed: gimeracil in 5-FU spiked blood, plasma with or without added WBC/buffy coat
# Format: biochemical
# Conditions: for Average 5-FU Measurement Initial / Average 5-FU Measurement 24-hour: in ng/mL; for Average 5-FU Measurement 24-hour: plasma 24 hours at room temperature
# Method: In the following illustrative examples, 5-FU was measured using an antibody-based agglutination assay on the Olympus AU680 Analyzer using an antibody disclosed in U.S. Pat. No. 7,205,116. Specifically, the concentration of 5-FU in a sample is determined based on the absorbance of a sample, which is determined by the amount of aggregation by the nanoparticles. The system requires two reagents, which when mixed in the absence of free 5-FU will form large aggregates of nanoparticles and scatter light to result in a higher absorption value. In the presence of free 5-FU, the agglutination reaction becomes somewhat inhibited and scattering of light is less, causing a lower absorption value. The instrument is calibrated twice monthly, and a curve is generated (Absorbance vs. 5-FU concentration). Absorbance values from individual samples are compared against this curve to determine concentration.
# Generally in the agglutination assay, 95 μl of a buffer containing 5-FU-labeled amino-dextran is pipetted to a cuvette, followed by 7 μL of a filtered plasma sample. The sample and reagent are mixed and then incubated for about 3.5 minutes. 95 μl of 5-FU antibody-conjugated nanoparticles is pipetted into the cuvette and mixed. The complete reaction incubates for about 6.2 minutes. A series of 27 measurements at 600 nm are taken at regular intervals by the AU680 analyzer throughout this process, and 5-FU concentration is calculated using the measurements from two specific time points.
# Four tubes of blood (spray-on K2EDTA tubes, 10 mL) was drawn from each of six donors, and gently inverted several times to mix anti-coagulant. All donor blood was pooled into one large tube, and two equal aliquots of that pooled blood were transferred to two new tubes. The remaining blood was used to isolate white blood cell (WBC)/buffy coat. WBC/buffy coat was isolated by centrifuging the remaining blood tubes, extracting and pooling the WBC layer from each tube, centrifuging again to enrich the WBC/buffy coat, and separating the enriched WBC/buffy coat layer into a clean tube. One volume of blood was spiked with a calculated volume of stock 5-FU (at 200 ng/μL) for a final concentration of 500 ng/mL, and the other volume of blood was spiked with a calculated volume of stock 5-FU (at 200 ng/μL) for a final concentration of 1500 ng/mL. Three sets of eight tubes each were prepared to aliquot the spiked blood into. In addition, a negative control was used that was inoculated with 300 μL of 30% methanol/water instead of gimeracil. To four of the eight tubes per set, the low concentration 5-FU blood was aliquotted, 6 mL each tube. The high concentration 5-FU blood was aliquotted to the remaining four tubes per set, as well as to the negative control tube, 6 mL each. The eight tubes were then inoculated with either 300 μL of 0.12 mg/mL gimeracil in 30% MeOH/water or 300 μL of 0.04 mg/mL gimeracil. Blood tubes were inverted to mix the gimeracil, and then sat at room temperature for 45 minutes. Blood tubes were centrifuged at 2000×g for 10 minutes and room temperature. Plasma was aspirated immediately after centrifugation and dispensed into clean cryovials. The WBC/buffy coat was added to designated tubes of plasma, and vortexed to evenly mix. Plasma samples were run under standard conditions for the AU680 analyzer (200 μL, spin for 15 minutes at 12,500 rpm). Measurements were taken immediately after adding WBC/buffy coat (“initial”), as well as 24 hours (“24-hour”), after addition of WBC/buffy coat. For the 24-hour measurement, plasma was stored at room temperature for the first 24 hours of the experiment to simulate overnight ambient shipping.
# [1] = target 5-FU 500 ng/mL, gimeracil 2000 ng/mL, NO WBC
# [2] = target 5-FU 500 ng/mL, gimeracil 2000 ng/mL, w/WBC
# [3] = target 5-FU 500 ng/mL, gimeracil 6000 ng/mL, NO WBC
# [4] = target 5-FU 500 ng/mL, gimeracil 6000 ng/mL, w/WBC
# [5] = target 5-FU 1500 ng/mL, gimeracil 2000 ng/mL, NO WBC
# [6] = target 5-FU 1500 ng/mL, gimeracil 2000 ng/mL, w/WBC
# [7] = target 5-FU 1500 ng/mL, gimeracil 6000 ng/mL, NO WBC
# [8] = target 5-FU 1500 ng/mL, gimeracil 6000 ng/mL, w/WBC
smiles,measurement,setting,value
"Oc1cc(O)c(Cl)cn1 [Gimeracil, 5-chloro-2,4-dihydroxypyridine]",% change (Initial vs. 24-hour),[1],−2.9%
same,Average 5-FU Measurement Initial,"target 5-FU 500 ng/mL, gimeracil 2000 ng/mL, NO WBC, initial",488.3
same,Average 5-FU Measurement 24-hour,[1],474.3
same,% change (Initial vs. 24-hour),[2],2.7%
same,Average 5-FU Measurement Initial,"target 5-FU 500 ng/mL, gimeracil 2000 ng/mL, w/WBC, immediately after adding WBC/buffy coat",465.8
same,Average 5-FU Measurement 24-hour,[2],478.6
same,% change (Initial vs. 24-hour),[3],1.7%
same,Average 5-FU Measurement Initial,"target 5-FU 500 ng/mL, gimeracil 6000 ng/mL, NO WBC, initial",479.1
same,Average 5-FU Measurement 24-hour,[3],487.3
same,% change (Initial vs. 24-hour),[4],1.0%
same,Average 5-FU Measurement Initial,"target 5-FU 500 ng/mL, gimeracil 6000 ng/mL, w/WBC, initial",473.7
same,Average 5-FU Measurement 24-hour,[4],478.6
same,% change (Initial vs. 24-hour),[5],−0.5%
same,Average 5-FU Measurement Initial,"target 5-FU 1500 ng/mL, gimeracil 2000 ng/mL, NO WBC, initial",1434.9
same,Average 5-FU Measurement 24-hour,[5],1427.3
same,% change (Initial vs. 24-hour),[6],2.9%
same,Average 5-FU Measurement Initial,"target 5-FU 1500 ng/mL, gimeracil 2000 ng/mL, w/WBC, initial",1377.7
same,Average 5-FU Measurement 24-hour,[6],1418.1
same,% change (Initial vs. 24-hour),[7],2.0%
same,Average 5-FU Measurement Initial,"target 5-FU 1500 ng/mL, gimeracil 6000 ng/mL, NO WBC, initial",1430.3
same,Average 5-FU Measurement 24-hour,[7],1458.3
same,% change (Initial vs. 24-hour),[8],−0.9%
same,Average 5-FU Measurement Initial,"target 5-FU 1500 ng/mL, gimeracil 6000 ng/mL, w/WBC, initial",1402.9
same,Average 5-FU Measurement 24-hour,[8],1390.1
